Values joined by “and” are separate entries in the source; they are usually repeats but may differ in a detail not shown here. Equal entries are not always repeated.
Tested on: Klebsiella isolates
Assay: Broth microdilution MIC (MICBMD) of Klebsiella isolates
Assay type: cell-based, Klebsiella pneumoniae, Klebsiella oxytoca
Procedure: An aliquot of bacterial suspension was added to 50 mL centrifuge tubes (Corning, N.Y.) containing 9 mL of pre-warmed (37° C.) filtered MHB to produce a final density of 5×10^5-1×10^6 bacteria per mL. This suspension was incubated at 37° C. with shaking at 100 RPM for 30 minutes to obtain an actively dividing culture. An aliquot of antibiotic working solution from the previously described dilution series (appropriate to the concentration tested) was then added to each tube before a further 30-minute incubation with shaking, during which time a microbroth dilution (MBD) plate was prepared for overnight incubation at 37° C. as previously described in Clinical and Laboratory Standards Institute (2015) Performance Standards for Antimicrobial Susceptibility Testing: Informational Supplement. CLSI document M100-S25. Clinical and Laboratory Standards Institute, 950, West Valley Road, Suite 2500, Wayne, Pa., 19087, USA.
FIG. 2 outlines the work flow as exemplified herein. In brief, an isolate was retrieved from cryopreservation, plated onto blood agar to ensure purity, and inoculated into trypticase soy broth (TSB, described above) overnight to simulate biological fluids. A 1 mL aliquot of this overnight suspension was inoculated into Mueller-Hinton broth (MHB) [comprising about 300.0 g beef extract (dehydrated infusion from), about 17.5 g casein hydrolysate, about 1.5 g starch, reconstituted in about 1 L of water, pH 7.3±0.1 as measured and kept at 25° C.] and incubated at 37° C. to ensure bacteria were actively dividing. One aliquot was subjected to traditional microbroth dilution (MBD) susceptibility testing.

[1] = K. pneumoniae isolate 18397, biological replicates
[2] = K. pneumoniae isolate 43292, biological replicates
[3] = K. pneumoniae isolate 43358, biological replicates
[4] = K. pneumoniae isolate 44271, biological replicates
[5] = K. pneumoniae isolate ATCC 700603, biological replicates
[6] = K. pneumoniae isolate ATCC BAA1705, biological replicates
[7] = K. pneumoniae isolate K1, biological replicates
[8] = K. pneumoniae isolate K14, biological replicates
[9] = isolate 3000770, England, NDM-1
[10] = isolate 3040820, England, pAmpC
[11] = isolate ATCC BAA 1705, USA, KPC
[12] = isolate K16, Australia, IMP - 4
[13] = isolate K23, Australia, IMP - 4
[14] = isolate KS1, Sri Lanka, OXA-181
[15] = isolate KS17, Sri Lanka, OXA-181

C[C@@H](O)[C@H]1C(=O)N2C(C(=O)O)=C(S[C@@H]3CN[C@H](C(=O)N(C)C)C3)[C@H](C)[C@H]12 [meropenem]
>256 mg/L: MICBMD (isolate K8, Australia, NDM-1) | MICBMD (isolate K14, Australia, KPC)
4 mg/L: MICBMD (isolate 500638, Sweden, pAmpC) | MICBMD [14]
≤0.25: MICBMD (K. pneumoniae ATCC 700603 (carbapenem susceptible control), limited clinical screen concentrations)
S (S = MIC ≤2 mg/L): MBD S/NS (isolate 3354, Australia) | MBD S/NS (isolate 10924, Sweden, KPC) | MBD S/NS (isolate 18397, Australia) | MBD S/NS (isolate 43288, Australia) | MBD S/NS (isolate 43292, Australia) | MBD S/NS (isolate 43358, Australia) | MBD S/NS (isolate 43854, Australia) | MBD S/NS (isolate 44271, Australia) | MBD S/NS (isolate 51575, Sweden, ESBL) | MBD S/NS (isolate 270902, England) | MBD S/NS (isolate 515870, Sweden, ESBL) | MBD S/NS (isolate 2440606, England) | MBD S/NS (isolate 2880622, England) | MBD S/NS (isolate 2890369, England) | MBD S/NS (isolate 2980639, England) | MBD S/NS [10] | MBD S/NS (isolate A1, Norway) | MBD S/NS (isolate A2, Norway) | MBD S/NS (isolate A3, Norway) | MBD S/NS (isolate A4, Norway) | MBD S/NS (isolate A7, Norway) | MBD S/NS (isolate A13, Norway) | MBD S/NS (isolate A15, Norway) | MBD S/NS (isolate A16, Norway) | MBD S/NS (isolate ATCC 700603, USA) | MBD S/NS (isolate ATCC BAA 1706, USA) | MBD S/NS [13]
≤0.25 mg/L: MICBMD [1] | MICBMD [2] | MICBMD [3] | MICBMD [5] | MICBMD (isolate 3354, Australia) | MICBMD (isolate 10924, Sweden, KPC) | MICBMD (isolate 18397, Australia) | MICBMD (isolate 43288, Australia) | MICBMD (isolate 43292, Australia) | MICBMD (isolate 43358, Australia) | MICBMD (isolate 43854, Australia) | MICBMD (isolate 51575, Sweden, ESBL) | MICBMD (isolate 515870, Sweden, ESBL) | MICBMD (isolate 2440606, England) | MICBMD (isolate 2880622, England) | MICBMD (isolate 2890369, England) | MICBMD (isolate 2980639, England) | MICBMD (isolate A1, Norway) | MICBMD (isolate A2, Norway) | MICBMD (isolate A3, Norway) | MICBMD (isolate A4, Norway) | MICBMD (isolate A7, Norway) | MICBMD (isolate A13, Norway) | MICBMD (isolate A15, Norway) | MICBMD (isolate A16, Norway) | MICBMD (isolate ATCC 700603, USA) | MICBMD (isolate ATCC BAA 1706, USA)
NS (NS: MIC >2 mg/L): BMD S/NS [6] | BMD S/NS [7] | BMD S/NS [8]
16 mg/L: MICBMD [6] | MICBMD (isolate 200822, Sweden, KPC) | MICBMD (isolate A20, Norway, NDM-1) | MICBMD [11] | MICBMD [12]
2 mg/L: MICBMD [13]
32 mg/L (2×) and 64 mg/L: MICBMD [7]
0.5 mg/L: MICBMD [4] | MICBMD (isolate 44271, Australia) | MICBMD (isolate 270902, England) | MICBMD [10]
32 mg/L: MICBMD (isolate 70708, Sweden, KPC) | MICBMD (isolate 71076, Sweden, KPC) | MICBMD [9] | MICBMD (isolate K2, Australia, OXA-181) | MICBMD (isolate N17, Sweden, NDM-1)
8 mg/L: MICBMD (isolate 374, Sweden, VIM)
4 mg/L and 2 mg/L (2×): MICBMD (K. pneumoniae isolate KS1, biological replicates)
NS (NS = MIC >2 mg/L): MBD S/NS (isolate 194, Sweden, VIM) | MBD S/NS (isolate 374, Sweden, VIM) | MBD S/NS (isolate 70708, Sweden, KPC) | MBD S/NS (isolate 71076, Sweden, KPC) | MBD S/NS (isolate 200822, Sweden, KPC) | MBD S/NS (isolate 500638, Sweden, pAmpC) | MBD S/NS (isolate 2880654, England, KPC) | MBD S/NS [9] | MBD S/NS (isolate 3080800, England, KPC) | MBD S/NS (isolate A20, Norway, NDM-1) | MBD S/NS [11] | MBD S/NS (isolate K1, Australia, OXA-181) | MBD S/NS (isolate K2, Australia, OXA-181) | MBD S/NS (isolate K8, Australia, NDM-1) | MBD S/NS (isolate K14, Australia, KPC) | MBD S/NS [12] | MBD S/NS [14] | MBD S/NS (isolate KS2, Sri Lanka, OXA-181) | MBD S/NS [15] | MBD S/NS (isolate KS23, Sri Lanka, OXA-181) | MBD S/NS (isolate N17, Sweden, NDM-1)
S (S: MIC ≤2 mg/L): BMD S/NS [1] | BMD S/NS [2] | BMD S/NS [3] | BMD S/NS [4] | BMD S/NS [5]
>16: MICBMD (K. pneumoniae ATCC BAA1705 (carbapenem resistant control), limited clinical screen concentrations)
256 mg/L: MICBMD [8] | MICBMD (isolate 3080800, England, KPC)
2 mg/L and 4 mg/L (2×): MICBMD (K. pneumoniae isolate KS11, biological replicates)
64 mg/L: MICBMD (isolate 194, Sweden, VIM) | MICBMD (isolate 2880654, England, KPC) | MICBMD (isolate K1, Australia, OXA-181) | MICBMD [15]

— US20210292807A1, “METHOD FOR TESTING ANTIMICROBIAL SUSCEPTIBILITY” (priority 2017, published 2021)
